According to patent publication US10314295B2, “Mouse model of hyperuricemia” (PHOENIXBIO CO., LTD., priority 2014, dated 2019):

Tested on: hyperuricemia model mice
Assay: Allopurinol-induced change in plasma uric acid level in hyperuricemia model mice
Format: in vivo, mouse
Procedure: The hyperuricemia model mice obtained as described above were subjected to administration of allopurinol, which is an existing drug for lowering blood uric acid levels. The number of the mice subjected to administration of allopurinol was six.
Allopurinol (Wako Pure Chemical Industries, Ltd.) was suspended in a 0.5 w/v% methylcellulose (MC) 400 solution (sterilized, Wako Pure Chemical Industries, Ltd.) for preparation of a 0.5 mg/mL allopurinol suspension. The 0.5 mg/mL allopurinol suspension was orally administered once in a volume of 10 mL/kg body weight (5 mg/kg body weight).
Blood was collected from each mouse before and 2, 4 and 24 hours after allopurinol or a 0.5 w/v % methylcellulose 400 solution was administered. The plasma uric acid concentration was measured in the same manner as above.

Oc1ncnc2[nH]ncc12 [allopurinol]
mean of the plasma uric acid concentrations (2 hours after single oral 5 mg/kg body weight, 6 mice, mean before administration 3.8 mg/dL, vehicle control 3.0 before, 4.8 at 2 hours): 1.9 mg/dL | change of plasma uric acid concentration by administration (single oral 5 mg/kg body weight, 2 hours after vs before administration): significantly reduced
